# Assays:
# Type in all cases: cell-based, human
# IGROV-1 = assay: SRB colorimetric assay of cell growth and viability, IGROV-1; details: 48 hours exposure, SRB
# LoVo = assay: SRB colorimetric assay of cell growth and viability, LoVo; details: 48 hours exposure; for CC50: read-out: LC50 LOVO
# LoVo-Dox = assay: SRB colorimetric assay of cell growth and viability, LoVo-Dox; details: 48 hours exposure; for CC50: read-out: LC50 LOVO-DOX
# How it was run: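 Cells in RPMI 1640 with 10% FBS were seeded at 5×10^3 per well and left 18 hours drug-free before compounds (10 to 10^−8 μg/mL in DMSO:EtOH:PBS 0.5:0.5:99) were added for 48 hours. TCA-fixed cells were stained with SRB and read at 490 nm; triplicate wells gave GI, TGI and LC.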
# SK-MEL-28 = assay: SRB colorimetric assay of cell growth and viability, SK-MEL-28; details: 48 hours exposure, SRB; for CC50: read-out: LC50 MEL-28
# LNCaP = assay: SRB colorimetric assay of cell growth and viability, LNCaP; details: 48 hours exposure, SRB; for GI50: read-out: GI50 LN-caP; for CC50: read-out: LC50 LN-caP
# K-562 = assay: SRB colorimetric assay of cell growth and viability, K-562; details: 48 hours exposure; for CC50: read-out: LC50 K-562
# HT-29 = assay: SRB colorimetric assay of cell growth and viability, HT-29; details: 48 hours exposure; for GI50: read-out: GI50 HT-29; for CC50: read-out: LC50 HT-29
# IGROV-ET = assay: SRB colorimetric assay of cell growth and viability, IGROV-ET; details: 48 hours exposure, SRB; for CC50: read-out: LC50 IGROV-ET
# A-549 = assay: SRB colorimetric assay of cell growth and viability, A-549; details: 48 hours exposure; for GI50: read-out: GI50 A-549; for CC50: read-out: LC50 A-549
# HeLa = assay: SRB colorimetric assay of cell growth and viability, HeLa; details: 48 hours exposure; for CC50: read-out: LC50 HELA
# PANC-1 = assay: SRB colorimetric assay of cell growth and viability, PANC-1; details: 48 hours exposure; for CC50: read-out: LC50 PANC-1
# DU-145 = assay: SRB colorimetric assay of cell growth and viability, DU-145; details: 48 hours exposure, SRB
# SK-BR-3 = assay: SRB colorimetric assay of cell growth and viability, SK-BR-3; details: 48 hours exposure, SRB
# HeLa-APL = assay: SRB colorimetric assay of cell growth and viability, HeLa-APL; details: 48 hours exposure; for CC50: read-out: LC50 HELA-APL
structure (smiles),measurement,setting,value
"C/C=C1\NC(=O)[C@H](Cc2ccccc2)NC(=O)[C@@H](C(C)C)NC(=O)[C@@H]([C@@H](C)CC)NC(=O)[C@H](NC(=O)[C@H](NC(=O)[C@H](CCCNC(=O)C(F)(F)F)NC(=O)[C@H]2CCCN2C(=O)[C@H](NC(=O)[C@@H](NC(=O)[C@@H](NC(=O)[C@H](NC(=O)CC[C@@H](C)CC)C(C)C)[C@@H](C)O)C(C)C)C(C)C)[C@@H](C)CC)[C@@H](C)OC(=O)[C@H](C(C)C)NC1=O [Compound 96, [Orn(N^δTfa)^8, 4(S)MeHex^14]-Kahalalide F]",GI50,IGROV-1,184 nM
same,LC50 (concentration causing 50% net cell killing),IGROV-1,607 nM
same,TGI IGROV,IGROV-1,3.34E−07 Molar
same,GI50,LoVo; SRB,140 nM
same,TGI LOVO,LoVo; SRB,2.64E−07 Molar
same,CC50,LoVo; SRB,500 nM
same,GI50,LoVo-Dox; SRB,153 nM
same,TGI LOVO-DOX,LoVo-Dox; SRB,2.93E−07 Molar
same,CC50,LoVo-Dox; SRB,559 nM
same,GI50,SK-MEL-28,1220 nM
same,TGI MEL-28,SK-MEL-28,2.15E−06 Molar
same,CC50,SK-MEL-28,3770 nM
same,TGI LN-caP,LNCaP,4.60E−06 Molar
same,GI50,LNCaP,1730 nM
same,CC50,LNCaP,6350 nM
same,GI50,K-562; SRB,4500 nM
same,TGI K-562,K-562; SRB,6.35E−06 Molar
same,CC50,K-562; SRB,6350 nM
same,TGI HT-29,HT-29; SRB,2.11E−07 Molar
same,GI50,HT-29; SRB,101 nM
same,CC50,HT-29; SRB,442 nM
same,GI50,IGROV-ET,178 nM
same,TGI IGROV-ET,IGROV-ET,3.32E−07 Molar
same,CC50,IGROV-ET,619 nM
same,TGI A-549,A-549; SRB,2.57E−06 Molar
same,GI50,A-549; SRB,1260 nM
same,CC50,A-549; SRB,5230 nM
same,GI50,HeLa; SRB,244 nM
same,TGI HELA,HeLa; SRB,7.24E−07 Molar
same,CC50,HeLa; SRB,2590 nM
same,GI50,PANC-1; SRB,6040 nM
same,TGI PANC-1,PANC-1; SRB,6.35E−06 Molar
same,CC50,PANC-1; SRB,6350 nM
same,GI50,DU-145,985 nM
same,LC50 (concentration causing 50% net cell kill),DU-145,3810 nM
same,TGI DU-145,DU-145,1.94E−06 Molar
same,GI50,SK-BR-3,64.8 nM
same,LC50,SK-BR-3,560 nM
same,TGI SK-BR-3,SK-BR-3,1.91E−07 Molar
same,GI50,HeLa-APL; SRB,686 nM
same,TGI HELA-APL,HeLa-APL; SRB,1.62E−06 Molar
same,CC50,HeLa-APL; SRB,3820 nM
"C/C=C1\NC(=O)[C@H](Cc2ccccc2)NC(=O)[C@@H](C(C)C)NC(=O)[C@@H]([C@@H](C)CC)NC(=O)[C@H](NC(=O)[C@H](NC(=O)[C@H](CCCN)NC(=O)[C@H]2CCCN2C(=O)[C@H](NC(=O)[C@@H](NC(=O)[C@@H](NC(=O)[C@H](NC(=O)CC[C@@H](C)[C@H]2CC[C@H]3[C@@H]4CC[C@@H]5C[C@H](OC(=O)C(F)(F)F)CC[C@]5(C)[C@H]4CC[C@]23C)C(C)C)[C@@H](C)OC(=O)C(F)(F)F)C(C)C)C(C)C)[C@@H](C)CC)[C@@H](C)OC(=O)[C@H](C(C)C)NC1=O [Compound 97, [Thr(OTfa)^12, Lit(OTfa)^14]-Kahalalide F]",GI50,IGROV-1,244 nM
same,LC50 (concentration causing 50% net cell killing),IGROV-1,2200 nM
same,TGI IGROV,IGROV-1,4.64E−07 Molar
same,GI50,LoVo; SRB,128 nM
same,TGI LOVO,LoVo; SRB,3.01E−07 Molar
same,CC50,LoVo; SRB,1090 nM
same,GI50,LoVo-Dox; SRB,186 nM
same,TGI LOVO-DOX,LoVo-Dox; SRB,3.96E−07 Molar
same,CC50,LoVo-Dox; SRB,4120 nM
same,GI50,SK-MEL-28,128 nM
same,TGI MEL-28,SK-MEL-28,2.21E−07 Molar
same,CC50,SK-MEL-28,384 nM
same,TGI LN-caP,LNCaP,1.81E−06 Molar
same,GI50,LNCaP,866 nM
same,CC50,LNCaP,3770 nM
same,GI50,K-562; SRB,1280 nM
same,TGI K-562,K-562; SRB,2.34E−06 Molar
same,CC50,K-562; SRB,4270 nM
same,TGI HT-29,HT-29; SRB,3.36E−07 Molar
same,GI50,HT-29; SRB,176 nM
same,CC50,HT-29; SRB,1190 nM
same,GI50,IGROV-ET,232 nM
same,TGI IGROV-ET,IGROV-ET,4.57E−07 Molar
same,CC50,IGROV-ET,2380 nM
same,TGI A-549,A-549; SRB,1.96E−06 Molar
same,GI50,A-549; SRB,1050 nM
same,CC50,A-549; SRB,3640 nM
same,GI50,HeLa; SRB,809 nM
same,TGI HELA,HeLa; SRB,1.78E−06 Molar
same,CC50,HeLa; SRB,3890 nM
same,GI50,PANC-1; SRB,2640 nM
same,TGI PANC-1,PANC-1; SRB,5.22E−06 Molar
same,CC50,PANC-1; SRB,5220 nM
same,GI50,DU-145,517 nM
same,LC50 (concentration causing 50% net cell kill),DU-145,2810 nM
same,TGI DU-145,DU-145,1.21E−06 Molar
same,GI50,SK-BR-3,45.5 nM
same,LC50,SK-BR-3,324 nM
same,TGI SK-BR-3,SK-BR-3,1.17E−07 Molar
same,GI50,HeLa-APL; SRB,751 nM
same,TGI HELA-APL,HeLa-APL; SRB,1.61E−06 Molar
same,CC50,HeLa-APL; SRB,3440 nM
"C/C=C1\NC(=O)[C@H](Cc2ccccc2)NC(=O)[C@@H](C(C)C)NC(=O)[C@@H]([C@@H](C)CC)NC(=O)[C@H](NC(=O)[C@H](NC(=O)[C@H](CCCN)NC(=O)[C@H]2CCCN2C(=O)[C@H](NC(=O)[C@@H](NC(=O)[C@@H](NC(=O)[C@@H](C(C)C)N(CCCCCCC)CCCCCCC)[C@@H](C)O)C(C)C)C(C)C)[C@@H](C)CC)[C@@H](C)OC(=O)[C@H](C(C)C)NC1=O [Compound 98, [no5-MeHex^14-N-(Hep)2-D-Val^13]-Kahalalide F]",TGI IGROV,IGROV-1,6.40E−06 Molar
same,TGI LOVO,LoVo; LOVO,6.40E−06 Molar
same,TGI LOVO-DOX,LoVo-Dox; LOVO-DOX,6.40E−06 Molar
same,TGI MEL-28,SK-MEL-28,6.40E−06 Molar
same,TGI LN-caP,LNCaP,6.40E−06 Molar
same,TGI K-562,K-562; K-562,6.40E−06 Molar
same,TGI HT-29,HT-29; HT-29,6.40E−06 Molar
same,TGI IGROV-ET,IGROV-ET,6.40E−06 Molar
same,TGI A-549,A-549; A-549,6.40E−06 Molar
same,TGI HELA,HeLa; HELA,2.43E−06 Molar
same,TGI PANC-1,PANC-1; PANC-1,6.40E−06 Molar
same,TGI DU-145,DU-145,6.40E−06 Molar
same,TGI SK-BR-3,SK-BR-3,6.40E−06 Molar
same,TGI HELA-APL,HeLa-APL; HELA-APL,3.46E−06 Molar
